Patent US20230414543A1, “METHOD OF FEEDING A GESTATING OR LACTATING ANIMAL” (NUTRECO IP ASSETS B.V., priority 2021, published 2023)
Where two headings read alike, the source gives them in different places.

How the values were obtained:
[1] = test system: gestating or lactating sows and their litters
Text: (§1) From day 80 of gestation up to parturition (day 115 of gestation), and subsequently through the whole period of lactation from parturition until weaning (25 days after parturition), sows of various parities were fed a top dress of 100 g/day on top of their normal diet. […] The placebo top dress was formulated from barley, wheat, corn, wheat bran, molasses, vegetable oil, and sugar. […] The ingredient (40%) was embedded in a matrix of hydrogenated fat (50%) and calcium carbonate (10%).
(§2) During gestation, sows were fed the normal diet at approximately 3 kg/day. In lactation, all sows were fed the normal diet at an increasing level following a set feeding scheme, starting from 3 kg after parturition, and increasing by 0.5 kg each day to the maximum intake capacity of each sow. The allowance was capped at a maximum of 9 kg/day.
At parturition, piglets were weighed immediately as they were born, and again at 24 h after birth, to estimate colostrum intake based on the algorithm developed by Theil et al. (Mechanistic model to predict colostrum intake based on deuterium oxide dilution technique data and impact of gestation and prefarrowing diets on piglet intake and sow yield of colostrum. J. Anim. Sci. 2014, 92:5507-5519). One day after parturition, when 24-h weights had been recorded, litter size was standardized by cross-fostering, to 14 or 15 piglets per litter. […] As a measure of milk production, the weight gain of the litter was measured at 7 days after parturition, and again at 24 days of lactation, just before piglets were weaned. […] When analyzing the data, litter weight gain was corrected for litter size.

[2] = test system: colostrum of sows
Text: as §1
Colostrum samples were collected just after the first piglet was born and were analyzed for total solids, protein, and lactose, using Brix refractometry. Brix refractometry is a method to measure the concentration of solutes in a solution, based on the refraction of light, and is widely used to analyze milk samples in the dairy industry (for example: Lokke M M, Engelbrecht R, Wiking L. Covariance structures of fat and protein influence the estimation of IgG in bovine colostrum. Journal of Dairy Research (2016), 83: 58-66). […] Total solids is the sum of protein, fat, and lactose.
The total output of nutrients (protein, lactose, or total solids) per sow was calculated by multiplying the volume of colostrum per sow (Table 2) with the concentration (Table 3) of each nutrient.

[3] = test system: gestating or lactating sows and their litters; remark: listed apart in the source
Text: From day 109 of gestation up to parturition (day 115 of gestation), and subsequently through the whole period of lactation from parturition until weaning (25 days after parturition), sows of various parities were fed a top dress of 100 g/day on top of their normal diet. […] The placebo top dress was formulated from barley, wheat, corn, wheat bran, molasses, vegetable oil, and sugar.
as §2
At parturition, piglets were weighed immediately as they were born. One day after parturition, litter size was standardized by cross-fostering, to 14 or 15 piglets per litter. Piglets were only cross-fostered to sows within the same treatment. As a measure of milk production, the weight gain of the litter was measured at 7 days after parturition, and again at 21 days of lactation, just before piglets were weaned (24 days of lactation). […] When analyzing the data, litter weight gain was corrected for litter size.

[4] = corrected for litter size, 4 g/day, day 80 of gestation until weaning
[5] = piglets, 4 g/day, day 80 of gestation until weaning
[6] = Brix refractometry, sample just after first piglet was born
[7] = volume of colostrum × concentration

calcium gluconate
Litter weight gain d1-d7, kg per litter [1, 4]: 16.9 kg per litter
Litter weight gain d1-d24, kg per litter [1, 4]: 70.0 kg per litter
Total colostrum intake per litter ([1]; corrected for litter size, estimated from piglet weights at birth and 24 h (Theil et al.), 4 g/day calcium gluconate in fat matrix, top dress from day 80 of gestation until weaning): 5565 g
Increase of litter weight gain compared to placebo ([1]; first seven days of lactation): 7.6%
Litter size at weaning, difference compared to placebo ([1]; piglets per litter): 0.3
Numbers weaned ([1]; piglets per litter, 4 g/day, day 80 of gestation until weaning): 13.2
Neonatal mortality up to day 7 [1, 5]: 8.4%
Pre-wean mortality [1, 5]: 9.6%
Neonatal survival compared to placebo ([1]; result in words): greater
Survival throughout the whole lactation period compared to placebo ([1]; result in words): greater
Increase of litter weight gain compared to placebo ([1]; whole lactation period): 5%
Concentration of solutes in colostrum: Lactose [2, 6]: 2.4%
Concentration of solutes in colostrum: Protein [2, 6]: 17.5%
Higher output of total solids, total protein and lactose compared to placebo ([2]; colostrum): 6-10%
Concentration of solutes in colostrum: Total solids ([2]; total of fat, protein and lactose, Brix refractometry, sample just after first piglet was born): 25.0%
Total output of nutrients per sow: Total lactose per sow [2, 7]: 136 g
Total output of nutrients per sow: Total protein per sow [2, 7]: 1008 g
Total output of nutrients per sow: Total solids per sow [2, 7]: 1437 g
Litter weight gain day 1-day 21 ([3]; 4 g/day, day 109 of gestation until weaning): 67.1 kg
Litter size at weaning, difference compared to placebo ([3]; piglets per litter): 0.4
Survival of piglets throughout the whole lactation period compared to placebo ([3]; result in words): greater
Litter gain, difference compared to placebo ([3]; when correcting for the number of piglets weaned): 2.2 kg
